One series relates to mouse skin tissues. As to the kind of experiment: Apoptosis in skin tissues of TPA-induced mice, FITC staining. The class given is in vivo. The note with it: FIGS. 7C to 7E. As for the experimental part:
(§1) Therefore, in order to verify the degree of the cytotoxicity of the YG-II-6 compounds, their cytotoxicity on human-derived keratinocytes was confirmed by using the WST-1 reagent. In order to verify the effects of the compounds on the expression of proteins associated with apoptosis, the keratinocytes were treated with corresponding concentrations of the respective compound samples and stimulated with TPA for 24 hours, and the expression levels of proteins were confirmed by western blot assay. In addition, human-derived keratinocytes and primary culture skin keratinocytes were treated with the compounds, and after 24 hours, subjected to FITC staining and TUNEL assay, and the skin tissues isolated from TPA-induced mice was subjected to FITC staining

The test system of the next series is ERK1/2, p38, and JNK. Kind of series: MAP kinase phosphorylation in TPA-stimulated skin keratinocytes, western blot. To be noted: 400 nM TPA for 15 minutes, FIG. 4. It counts as cell-based, human. As for the experimental part:
In order to verify the effects of the respective compounds on MAP kinase, skin keratinocytes were treated with the respective compounds for 1 hour, and then stimulated with 400 nM TPA for 15 minutes. The level of phosphorylation was confirmed by western blot assay.
A general note: In western blotting, separated proteins are transferred to a membrane and probed.

Series [1] has as its system NF-κB. As to the kind of experiment: Nuclear translocation of NF-κB, immunostaining, TPA-stimulated skin keratinocytes. It counts as cell-based, human. To be noted: TPA stimulation, FIG. 1B. As for the experimental part:
(§2) Herein, in order to verify the effect of novel synthetic YG-II-6 compounds and their lead compound, phytosphingosine, on phosphorylation and degradation of IκBα, which is a protein that inhibits the activity of NF-κB by forming a complex with NF-κB, skin keratinocytes were pre-treated with respective compounds for 1 hour and then stimulated with 400 nM TPA for 15 minutes and 30 minutes, respectively. In order to verify the phosphorylation of NF-κB and the expression level of NF-κB in the cytoplasm and nucleus, skin keratinocytes were stimulated for 15 minutes and 1 hour, respectively. The results were confirmed by western blot analysis. In addition, the nuclear translocation of NF-κB was confirmed through reaction with antibodies, fluorescent labeling, and direct observation by microscopy. In order to verify the activity of the respective compounds at the transcription stage, cells were transfected with plasmids labeled with NF-κB luciferase reporter, and the luciferase activity was measured by the luciferase assay. In addition, the phosphorylation of IκBα and NF-κB was measured in the PTA-stimulated mouse skin.

Series [2] concerns NF-κB. Kind of series: Phosphorylation of IκBα and NF-κB in TPA-stimulated skin keratinocytes, western blot. The class given is cell-based, human. To be noted: for inhibitory effect on the NF-κB activation: overall conclusion of the NF-κB tests. As for the experimental part:
as §2

Series [3] deals with human-derived keratinocytes and primary culture skin keratinocytes. As to the kind of experiment: Apoptosis in keratinocytes, FITC staining and TUNEL assay. It counts as cell-based. The note with it: 24 hours, FIGS. 7C to 7E. As for the experimental part:
as §1

Series [4] has as its system human-derived keratinocytes. Kind of series: Cytotoxicity on human-derived keratinocytes, WST-1 reagent. It counts as cell-based. To be noted: WST-1, FIG. 7A. As for the experimental part: as §1
On the technique in general: Formazan colour is commonly taken as a measure of viable cells.

Series [5] has as its system NF-κB. Kind of series: NF-κB luciferase reporter assay, TPA stimulation. It counts as cell-based, human. To be noted: FIG. 1C. As for the experimental part:
as §2
On the technique in general: In a reporter assay the amount or activity of a reporter protein is the signal.

“Also recorded” adds a separate entry of the source.

Experimental findings from patent publication US9868697B2, “Phytosphingosine derivatives, and composition comprising same for preventing and treating inflammatory skin diseases, autoimmune diseases, and hyperkeratosis diseases” (THE CATHOLIC UNIVERSITY OF KOREA INDUSTRY—ACADEMIC …, priority 2011, dated 2018) are described below.

Turning to `CCCCCCCCCCCCCC[C@@H](O)[C@@H](O)[C@@H](N)CO` [phytosphingosine], the “apoptosis in the mouse skin tissues” value in the series on mouse skin tissues was “induced apoptosis”. Also, the “phosphorylation of ERK1/2, p38, and JNK” value in the series with ERK1/2, p38, and JNK is “relatively weaker inhibitory activity than the YG-II-6 compounds; also recorded: no or little inhibitory effect”. Moreover, the “nuclear translocation of NF-κB” value in the series with NF-κB [1] was “inhibited the nuclear translocation of NF-κB”. In addition, in the series with NF-κB [2], the “inhibitory effect on the NF-κB activation” value was “inhibited the activation of NF-κB”. For the same compound, the “phosphorylation of IκBα and NF-κB increased by TPA stimulation” value in the series with NF-κB [2] (skin keratinocytes, 1 hour pre-treatment, 400 nM TPA, FIG. 1A) was “inhibited the phosphorylation of IκBα and NF-κB”. For the same compound, the “apoptosis in the TPA-stimulated cells” value in series [3] was “induced apoptosis”. Also, the “concentration at which cytotoxicity was shown” value in series [4] lay within 5 to 10 µM. Moreover, the “NF-κB luciferase activity increased by TPA stimulation” value in the series on NF-κB [5] is given as “inhibited the luciferase activity”.

As to `CCCCCCCCCCCCCC[C@@H](O)[C@@H](O)[C@H](CO)NC(=O)/C=C/C(=O)O` [fYG-II-6, (E)-4-oxo-4-(((2S,3S,4R)-1,3,4-trihydroxyoctadecan-2-yl)amino)but-2-enoic acid], the “inhibitory effect on the NF-κB activation” value in the series with NF-κB [2] is recorded as “relatively greater inhibitory effect than mYG-II-6”.
